Laboratory results taken from patent US20100331315A1, “RHODANINES AND RELATED HETEROCYCLES AS KINASE INHIBITORS” (priority 2009, published 2010).
Where two headings read alike, the source gives them in different places.

Columns and labels:
[1] = tested on: MDAMB231; assay: Alamar Blue cell proliferation assay, MDAMB231; assay type: cell-based; details: Homo sapiens, MDA-MB-231, MDAMB231, Table 1, read-out: AB: MDAMB231 IC50
Protocol: (§1) A representative cell-proliferation assay protocol using Alamar Blue dye (stored at 4° C., use 20 ul per well) is described hereafter.
(§2) a. Split and trypsinize cells.
(§3) b. Count cells using hemocytometer.
(§4) c. Plate 4,000-5,000 cells per well in 100 μl of medium and seed into a 96-well plate according to the following plate layout. Add cell culture medium only to wells B10 to B12. Wells B1 to B9 have cells but no compound added.
(§5) d. Add 100 μl of 2× drug dilution to each well in a concentration shown in the plate layout above. At the same time, add 100 μl of media into the control wells (wells B10 to B12). Total volume is 200 μl/well.
(§6) e. Incubate four (4) days at 37° C., 5% CO2 in a humidified incubator.
(§7) f. Add 20 μl Alamar Blue reagent to each well.
(§8) g. Incubate for four (4) hours at 37° C., 5% CO2 in a humidified incubator.
(§9) h. Record fluorescence at an excitation wavelength of 544 nm and emission wavelength of 590 nm using a microplate reader.
(§10) In the assays, cells are cultured with a test compound for approximately four days, the dye is then added to the cells and fluorescence of […] dye is detected after approximately four hours. Different types of cells can be utilized in the assays (e.g., HCT-116 human colorectal carcinoma cells, PC-3 human prostatic cancer cells and MiaPaca human pancreatic carcinoma cells).

[2] = tested on: K-562; assay: Alamar Blue cell proliferation assay, K-562; assay type: cell-based; details: Homo sapiens
Protocol: as §1, §2, §3, §4, §5, §6, §7, §8, §9, §10

[3] = target: recombinant PIM-1 (Homo sapiens, UniProt P11309); assay: PIM-1 assay (33P-ATP filter plate); assay type: biochemical; details: read-out: PIM1: IC50
Protocol: The following procedure was used to assay the PIM-1 kinase activity of compounds of the invention. Other methods for assaying PIM-1 and other PIM kinases, as well as methods to assay for activity against the various kinases are known in the art.
In a final reaction volume of 50 ul, recombinant PIM-1 (1 ng) was incubated with 12 mM MOPS pH 7.0, 0.4 mM EDTA, glycerol 1%, brij 35 0.002%, 2-mercaptoethanol 0.02%, BSA 0.2 mg/ml, 100 uM KKRNRTLTK, 10 mM MgAcetate, 15 uM ATP, [γ-^33P-ATP] (specific activity approx. 500 cpm/pmol), DMSO 4% and test inhibitor compound at the required concentration. The reaction was initiated by the addition of the Magnesium ATP mixture. After 40 min incubation at 23° C., the reactions were quenched by the addition of 100 ul 0.75% Phosphoric acid, and the labeled peptide collected by filtration through a phosphocellulose filter plate. The plate was washed 4 times with 0.075% phosphoric acid (100 ul per well) and then, after the addition of scintillation fluid (20 ul per well), the counts were measured by a scintillation counter.

[4] = tested on: MV-4-11; assay: Alamar Blue cell proliferation assay, MV-4-11; assay type: cell-based; details: Homo sapiens, MV4-11, MV-4-11, Table 1, read-out: AB: MV-4-11 IC50
Protocol: as §1, §2, §3, §4, §5, §6, §7, §8, §9, §10

[5] = tested on: MiaPaca human pancreatic carcinoma cells; assay: Alamar Blue cell proliferation assay, MiaPaCa; assay type: cell-based; details: MIA PaCa-2, Table 1, read-out: AB: MiaPaCa IC50
Protocol: as §1, §2, §3, §4, §5, §6, §7, §8, §9, §10

[6] = tested on: PC-3 human prostatic cancer cells; assay: Alamar Blue cell proliferation assay, PC3; assay type: cell-based
Protocol: as §1, §2, §3, §4, §5, §6, §7, §8, §9, §10

[7] = target: T1, recombinant human CK2 (Homo sapiens, UniProt P68400); assay: CK2 assay (cell-free, 33P-ATP filter plate); assay type: biochemical
T1 construct: purchased Upstate
Protocol: Modulatory activity of compounds described herein was assessed in vitro in cell-free CK2 assays by the following method.
Test compounds in aqueous solution were added at a volume of 10 microliters, to a reaction mixture comprising 10 microliters Assay Dilution Buffer (ADB; 20 mM MOPS, pH 7.2, 25 mM beta-glycerolphosphate, 5 mM EGTA, 1 mM sodium orthovanadate and 1 mM dithiothreitol), 10 microliters of substrate peptide (RRRDDDSDDD, dissolved in ADB at a concentration of 1 mM), 10 microliters of recombinant human CK2 (25 ng dissolved in ADB; Upstate). Reactions were initiated by the addition of 10 microliters of ATP Solution (90% 75 mM MgCl2, 75 micromolar ATP dissolved in ADB; 10% [γ-^33P]ATP (stock 1 mCi/100 μl; 3000 Ci/mmol (Perkin Elmer) and maintained for 10 minutes at 30 degrees C. The reactions were quenched with 100 microliters of 0.75% phosphoric acid, then transferred to and filtered through a phosphocellulose filter plate (Millipore). After washing each well 5 times with 0.75% phosphoric acid, the plate was dried under vacuum for 5 min and, following the addition of 15 ul of scintillation fluid to each well, the residual radioactivity was measured using a Wallac luminescence counter.

[8] = K562, K-562, Table 1, read-out: AB: K-562 IC50
[9] = PC-3, PC3, Table 1, read-out: AB: PC3
[10] = K562, K-562, Table 4, read-out: AB: K-562 IC50
[11] = PC3, Table 4, read-out: AB: PC3 IC50

T1 sequence (P68400 whole entry): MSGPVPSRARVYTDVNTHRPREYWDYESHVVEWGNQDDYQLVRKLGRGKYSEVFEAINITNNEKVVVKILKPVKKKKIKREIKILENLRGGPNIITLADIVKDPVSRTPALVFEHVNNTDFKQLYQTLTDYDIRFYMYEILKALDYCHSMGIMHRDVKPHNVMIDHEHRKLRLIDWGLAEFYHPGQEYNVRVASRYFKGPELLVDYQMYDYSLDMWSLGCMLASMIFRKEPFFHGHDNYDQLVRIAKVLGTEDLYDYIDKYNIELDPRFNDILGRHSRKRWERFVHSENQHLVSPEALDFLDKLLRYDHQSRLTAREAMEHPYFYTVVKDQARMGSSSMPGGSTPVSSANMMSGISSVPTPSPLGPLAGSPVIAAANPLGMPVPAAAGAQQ
T1 sequence (P67870 whole entry partner): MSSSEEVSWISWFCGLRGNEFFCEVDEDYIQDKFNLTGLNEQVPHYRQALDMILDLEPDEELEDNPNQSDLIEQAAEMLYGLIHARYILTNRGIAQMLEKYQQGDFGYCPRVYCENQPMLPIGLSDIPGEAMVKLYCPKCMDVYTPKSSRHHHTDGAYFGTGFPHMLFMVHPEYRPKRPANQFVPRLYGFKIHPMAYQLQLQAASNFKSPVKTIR
Sequence of recombinant PIM-1 (P11309 whole entry): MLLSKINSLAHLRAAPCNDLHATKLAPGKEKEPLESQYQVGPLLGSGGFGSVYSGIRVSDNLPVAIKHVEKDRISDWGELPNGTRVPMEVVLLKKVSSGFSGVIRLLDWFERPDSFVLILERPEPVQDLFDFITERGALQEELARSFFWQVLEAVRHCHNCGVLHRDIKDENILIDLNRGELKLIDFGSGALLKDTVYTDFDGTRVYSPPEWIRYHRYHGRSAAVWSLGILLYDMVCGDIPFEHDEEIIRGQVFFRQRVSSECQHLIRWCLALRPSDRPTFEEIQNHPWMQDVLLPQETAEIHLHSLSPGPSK

Row | IC50 [1] [µM] | IC50 [2, 8] [µM] | IC50 ([3]; Table 1) [nM] | IC50 [4] [µM] | IC50 [5] [µM] | IC50 [6, 9] [µM] | IC50 ([7]; Table 1) [nM] | SMILES | also measured
1 | > 10 | > 10 | 25 | > 10 | > 10 | > 30 |  | CN1CCCN(C(=O)c2ccc(-c3ccc(/C=C4\SC(=S)NC4=O)o3)cc2)CC1 | 
2 | > 10 | > 10 | 64 | > 10 | > 10 | > 30 |  | CN1CCN(C(=O)c2ccc(-c3ccc(/C=C4\SC(=S)NC4=O)o3)cc2)CC1 | 
3 | > 10 | > 10 | 19 | > 1 | > 10 | > 30 | 196 | NCCN1CCN(C(=O)c2ccc(-c3ccc(/C=C4\SC(=S)NC4=O)o3)cc2)CC1 | 
4 | > 10 | > 10 | 6 | > 10 | > 10 | > 30 | 131 | CCN(CC)CCNC(=O)c1ccc(-c2ccc(/C=C3\SC(=S)NC3=O)o2)cc1 | 
5 | > 10 | > 10 | 28 | 0.21 | 3.95 | > 30 |  | CCN1CCCC1CNC(=O)c1ccc(-c2ccc(/C=C3\SC(=S)NC3=O)o2)cc1 (stereo not shown) | 
6 | > 10 | > 10 | 14 | > 10 | > 10 | > 30 | 226 | Cc1nccn1CCNC(=O)c1ccc(-c2ccc(/C=C3\SC(=S)NC3=O)o2)cc1 | 
7 | > 10 | > 10 | 35 | > 10 | > 10 | > 30 | 108 | Cn1cncc1CNC(=O)c1ccc(-c2ccc(/C=C3\SC(=S)NC3=O)o2)cc1 | 
8 | > 10 | > 10 | 37 | > 10 | > 10 | > 30 |  | CN1CCC(N(C)C(=O)c2ccc(-c3ccc(/C=C4\SC(=S)NC4=O)o3)cc2)C1 (stereo not shown) | 
9 | > 10 | > 10 | 37 | > 10 | > 10 | > 30 | 471 | CN1CCCCC1CNC(=O)c1ccc(-c2ccc(/C=C3\SC(=S)NC3=O)o2)cc1 (stereo not shown) | 
10 | > 10 | > 10 | 67 | > 10 | > 10 | > 30 |  | CC(C)N1CCN(C(=O)c2ccc(-c3ccc(/C=C4\SC(=S)NC4=O)o3)cc2)CC1 | 
11 | > 10 | > 10 | 286 | 8.83 | > 10 | > 30 | 40 | O=C1NC(=S)S/C1=C\c1ccc(-c2ccc(C(=O)NCc3ccccn3)cc2)o1 | 
12 | > 10 | > 10 | 47 |  | > 10 | > 30 | 281 | O=C1NC(=S)S/C1=C\c1ccc(-c2cccc(C(=O)Nn3cnnc3)c2)o1 | 
13 | > 10 | > 10 | 226 | > 10 | > 10 |  | 107 | O=C1NC(=S)S/C1=C\c1ccc(-c2ccc(Cl)c(C(=O)O)c2)o1 | 
14 | > 10 | 0.064 | < 1 | < 0.03 |  | > 10 | 3 | CCN(CC)CCNC(=O)c1ccc(Cl)c(-c2ccc(/C=C3\SC(=S)NC3=O)o2)c1 | 
15 | > 10 | > 10 | 2 |  | > 10 | > 10 | 10 | CCN(CC)CCNC(=O)c1cc(-c2ccc(/C=C3\SC(=S)NC3=O)o2)ccc1Cl | 
16 | > 10 | > 10 | 42 |  | > 10 | > 10 | 54 | COCCNC(=O)c1cc(-c2ccc(/C=C3\SC(=S)NC3=O)o2)ccc1Cl | 
17 | > 10 | 7.62 | 3 |  | > 10 | > 10 | 10 | COCCNC(=O)c1ccc(Cl)c(-c2ccc(/C=C3\SC(=S)NC3=O)o2)c1 | 
18 | > 10 | > 10 | 6 | > 10 | > 10 |  | 3 | COC(=O)c1cccc(-c2ccc(CC3SC(=S)NC3=O)o2)c1 (stereo not shown) | 

Row | IC50 [1] [µM] | IC50 [2, 8] [µM] | IC50 ([3]; Table 1) [nM] | IC50 [4] [µM] | IC50 [5] [µM] | IC50 [6, 9] [µM] | IC50 ([7]; Table 1) [nM] | SMILES | also measured
19 |  |  | 1300 |  |  |  | > 5000 | CN1CCCN(C(=O)c2ccccc2-c2ccc(/C=C3\SC(=S)NC3=O)o2)CC1 | 
20 |  |  | 4330 |  |  |  | 3790 | O=C1NC(=S)S/C1=C\c1ccc(-c2ccccc2C(=O)O)o1 | 
21 |  |  | 15 |  |  | > 10 | 9 | NS(=O)(=O)c1ccc(-c2ccc(/C=C3\SC(=S)NC3=O)o2)cc1 | 
22 |  |  |  |  |  |  |  | O=C1NC(=O)/C(=C/c2ccc(-c3cccc(C(=O)O)c3)o2)S1 | IC50 ([7]; Table 2): 117 nM; IC50 ([3]; Table 2): > 5000 nM
23 |  |  |  |  |  |  |  | NS(=O)(=O)c1ccc(-c2ccc(/C=C3\SC(=O)NC3=O)o2)cc1 | IC50 ([7]; Table 2): 35 nM; IC50 ([3]; Table 2): 51 nM; IC50 ([6]; PC3, Table 2, read-out: AB: PC3 IC50): > 10 µM
24 |  |  |  |  |  |  |  | O=C1NC(=O)/C(=C\c2ccc(-c3cccc(C(=O)O)c3)o2)N1 | IC50 ([7]; Table 3): 2060 nM; IC50 ([3]; Table 3): > 5000 nM
25 |  |  |  |  |  |  |  | CN1C(=O)NC(=O)/C1=C\c1ccc(-c2cccc(C(=O)O)c2)o1 | IC50 ([7]; Table 3): 1460 nM; IC50 ([3]; Table 3): > 5000 nM
26 |  |  |  |  |  |  |  | CN1C(=O)NC(=O)/C1=C\c1ccc(-c2ccc(C(=O)O)cc2)o1 | IC50 ([7]; Table 3): 216 nM; IC50 ([3]; Table 3): 829 nM
27 |  |  |  |  |  |  |  | O=C1NC(=O)/C(=C\c2ccc(-c3ccc(C(=O)O)cc3)o2)N1 | IC50 ([7]; Table 3): 166 nM; IC50 ([3]; Table 3): 805 nM
28 |  |  |  |  |  |  |  | CN1CCCN(C(=O)c2cccc(-c3ccc(/C=C4\C(=O)NC(=O)N4C)o3)c2)CC1 | IC50 ([7]; Table 3): 1820 nM; IC50 ([3]; Table 3): > 5000 nM
29 |  |  |  |  |  |  |  | CN1CCCN(C(=O)c2cccc(-c3ccc(/C=C4/NC(=O)NC4=O)o3)c2)CC1 | IC50 ([7]; Table 3): > 5000 nM; IC50 ([3]; Table 3): > 5000 nM
30 |  |  |  |  |  |  |  | NS(=O)(=O)c1ccc(-c2ccc(/C=C3\NC(=O)NC3=O)o2)cc1 | IC50 ([7]; Table 3): 458 nM; IC50 ([3]; Table 3): 276 nM
31 |  |  |  |  |  |  |  | CN1CCCN(c2cncc(-c3cccc(/C=C4\SC(=O)NC4=O)c3)n2)CC1 | IC50 ([7]; Table 4): 3 nM; IC50 [2, 10]: 0.076 µM; IC50 ([3]; Table 4): 1 nM; IC50 [6, 11]: 9.49 µM
32 |  |  |  |  |  |  |  | CN1CCCN(c2cncc(-c3ccc(/C=C4\SC(=O)NC4=O)o3)n2)CC1 | IC50 ([7]; Table 4): 6 nM; IC50 [2, 10]: 0.146 µM; IC50 ([3]; Table 4): 22 nM; IC50 [6, 11]: > 10 µM
33 |  |  |  |  |  |  |  | CN1CCCN(c2cncc(-c3ccc(/C=C4\NC(=O)NC4=O)o3)n2)CC1 | IC50 ([7]; Table 4): 229 nM; IC50 ([3]; Table 4): 1850 nM
34 |  |  |  |  |  |  |  | CN1CCCN(c2cncc(-c3cccc(/C=C4\SC(=S)NC4=O)c3)n2)CC1 | IC50 ([7]; Table 4): 1 nM; IC50 [2, 10]: < 0.03 µM; IC50 ([3]; Table 4): < 1 nM; IC50 [6, 11]: 3.46 µM
35 |  |  |  |  |  |  |  | CN1CCCN(c2cncc(-c3ccc(/C=C4\SC(=S)NC4=O)o3)n2)CC1 | IC50 ([7]; Table 4): 18 nM; IC50 ([3]; Table 4): 141 nM; IC50 [6, 11]: > 10 µM
